Experimental data taken from patent US20110166079A1, “METHODS OF TREATING CANCER WITH APOE PEPTIDES” (COGNOSCI, INC., priority 2008, published 2011).

Biological target: T1, PP2A (Mus musculus, UniProt P63330)
T1 construct: cells were lysed and PP2A was immunoprecipitated by adding an antibody targeted to the catalytic C-subunit of PP2A; endogenous in cells; host or cells: mouse macrophagic RAW cells
Assay: PP2A activity in RAW cells (immunoprecipitation / phosphate release)
Format: cell-based
Settings: 30 minutes, 2 μM COG112, 10 nM okadaic acid, FIG. 3
Protocol: Mouse macrophagic RAW cells were incubated with either 2 μM COG112 (SEQ ID NO: 2), 10 nM okadaic acid (an inhibitor of PP2A), or okadaic acid and COG112. After 30 minutes, cells were lysed and PP2A was immunoprecipitated by adding an antibody targeted to the catalytic C-subunit of PP2A. Half of the immunoprecipitate was separated by SDS-PAGE, blotted on to nitrocellulose, and probed with an anti-PP2AC antibody. The remaining portion was assayed for activity by adding 125 μL assay cocktail containing a phospho-threonine substrate peptide to the immunoprecipitated enzyme. After incubating at 37° C. with shaking, a 25 μL aliquot was removed and added to an ammonium molybdate solution (Upstate) that chelates free phosphate and changes color upon chelate formation. Aliquots were removed at various time intervals and the amount of free phosphate released from the peptide was determined by comparison to a phosphate standard curve. The rate of phosphate release was determined by linear fit to the time course data and was normalized to the relative PP2A concentration. […] PP2A activity was reduced in the presence of okadaic acid alone as expected. […] Thus, the active pool of PP2A in a cell can be regulated by ApoE peptides.

T1 sequence (P63330 whole entry): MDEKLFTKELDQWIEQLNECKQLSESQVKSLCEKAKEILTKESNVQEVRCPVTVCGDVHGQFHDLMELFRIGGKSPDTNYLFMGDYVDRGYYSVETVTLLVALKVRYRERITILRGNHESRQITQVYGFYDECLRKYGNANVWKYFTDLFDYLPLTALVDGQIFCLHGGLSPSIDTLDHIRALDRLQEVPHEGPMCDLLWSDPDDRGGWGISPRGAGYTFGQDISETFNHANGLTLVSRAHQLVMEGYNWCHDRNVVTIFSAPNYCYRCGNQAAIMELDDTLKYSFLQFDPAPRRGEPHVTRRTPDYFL

## Ac-RQIKIWFQNRRMKWKKCLRVRLASHLRKLRKRLL-NH2 (N-terminus and C-terminus assumed) [COG112]
  PP2A activity (rate of phosphate release): increased
